Where two headings read alike, the source gives them in different places.
Columns and labels:
[1] = molecular target: recombinant human Mcl-1 (residues 171-327) / Bim interaction (Homo sapiens (Human), UniProt Q07820); test: biochemical; type: binding; details: read-out: Mcl-1 HTRF IC50
[2] = test system: human multiple myeloma cell line, OPM-2; test: Cell viability assay (OPM-2 10 FBS), CellTiter-Glo; type: cell-based
Summary of the method: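 IC50 values come from 4-parameter logistic fits of luminescence signals reflecting cell viability. Treatment lasted 16 h at 37 °C in complete medium with 10% FBS, starting from 3000 cells/well.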

[3] = TR-FRET, Mcl-1(171-327) / biotin-Bim (51-76)
[4] = Homo sapiens, OPM-2, 16 h, read-out: OPM-2 10% FBS IC50 IP, OPM-2 cells, 10% FBS, 16 h, CellTiter-Glo
[5] = 0.1 nM Mcl-1(171-327), 0.05 nM biotin-Bim (51-76)
[6] = Homo sapiens, OPM-2, 16 h, read-out: OPM-2 10% FBS IC50 IP, OPM-2 cells, 10% FBS, 16 h incubation
[7] = read-out: OPM-2 10% FBS IC50 IP, OPM-2 cells, 10% FBS, 16 h, CellTiter-Glo
[8] = read-out: OPM-2 10% FBS IC50 IP, OPM-2 cells, 10% FBS, 16 h incubation

Sequence of recombinant human Mcl-1 (residues 171-327) / Bim interaction (Q07820 171-327): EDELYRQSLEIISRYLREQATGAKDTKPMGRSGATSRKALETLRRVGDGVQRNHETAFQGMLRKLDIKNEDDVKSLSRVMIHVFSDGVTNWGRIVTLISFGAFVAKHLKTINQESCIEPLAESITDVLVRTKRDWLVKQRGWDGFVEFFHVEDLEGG

Compound | IC50 [1, 3] [nM] | IC50 [2, 4] [nM] | IC50 [1, 5] [nM] | IC50 [2, 6] [nM] | other results
C[C@@H]1[C@@H](C)CCC[C@@](O)(COCCN(C)C)[C@@H]2CC[C@H]2CN2C[C@@]3(CCCc4cc(Cl)ccc43)COc3ccc(cc32)C(=O)NS1(=O)=O [Example 100194, (1S,3′R,6′R,7′S,11S,12R)-6-chloro-7′-((2-(dimethylamino)ethoxy)methyl)-7′-hydroxy-11′,12′-dimethyl-3,4-dihydro-2H,15′H-spiro[naphthalene-1,22′-[20]oxa[13]thia[1,14]diazatetracyclo [14.7.2.0~3,6~.0~19,24~]pentacosa[16,18,24]trien]-15′-one 13′,13′-dioxide] | 0.613 | 619 |  |  | 
CO[C@@]1(CN(C)C)/C=C/C[C@H](C)[C@@H](C)S(=O)(=O)NC(=O)c2ccc3c(c2)N(C[C@@H]2CC[C@H]21)C[C@@]1(CCCc2cc(Cl)ccc21)CO3 [Example 66, (1S,3′R,6′R,7′S,8′E,11′S,12′R)-6-chloro-7′-((dimethylamino)methyl)-7′-methoxy-11′,12′-dimethyl-3,4-dihydro-2H,15′H-spiro[naphthalene-1,22′-[20]oxa[13]thia[1,14]diazatetracyclo [14.7.2.0~3,6~.0~19,24~]pentacosa[8,16,18,24]tetraen]-15′-one 13′,13′-dioxide] |  |  | 0.246 | 318 | 
CCO[C@]1(CN2CCN3CCCC[C@@H]3C2)/C=C/C[C@H](C)[C@@H](C)S(=O)(=O)NC(=O)c2ccc3c(c2)N(C[C@@H]2CC[C@H]21)C[C@@]1(CCCc2cc(Cl)ccc21)CO3 [Example 108, (1S,3′R,6′R,7′R,8′E,11′S,12′R)-6-chloro-7′-ethoxy-11′,12′-dimethyl-7′-((9aR)-octahydro-2H-pyrido[1,2-a]pyrazin-2-ylmethyl)-3 ,4-dihydro-2H,15′H-spiro[naphthalene-1,22′-[20]oxa[13]thia[1,14]diazatetracyclo [14.7.2.0~3,6~.0~19,24~]pentacosa[8,16,18,24]tetraen]-15′-one 13′,13′-dioxide] |  |  | 0.198 | 116 | 
CO[C@@]1(C2SCCCS2)/C=C/[C@H](C)[C@H](C)CS(=O)(=O)NC(=O)c2ccc3c(c2)N(C[C@@H]2CC[C@H]21)C[C@@]1(CCCc2cc(Cl)ccc21)CO3 [Example 100567, (1S,3′R,6′R,7′S,8′E,10′S,11′S)-6-chloro-7′-(1,3-dithian-2-yl)-7′-methoxy-10′,11′-dimethyl-3,4-dihydro-2H,15′H-spiro[naphthalene-1,22′-[20]oxa[13]thia[1,14]diazatetracyclo [14.7.2.0~3,6~.0~19,24~]pentacosa[8,16,18,24]tetraen]-15′-one 13′,13′-dioxide] | 0.125 | 249 |  |  | 
C[C@@H]1[C@@H](C)CCC[C@@](O)(C#CCCN2CCOCC2)[C@@H]2CC[C@H]2CN2C[C@@]3(CCCc4cc(Cl)ccc43)COc3ccc(cc32)C(=O)NS1(=O)=O [Example 100372, (1S,3′R,6′R,7′S,11S,12R)-6-chloro-7′-hydroxy-11′,12′-dimethyl-7′-(4-(4-morpholinyl)-1-butyn-1-yl)-3,4-dihydro-2H,15′H-spiro[naphthalene-1,22′-[20]oxa[13]thia[1,14]diazatetracyclo [14.7.2.0~3,6~.0~19,24~]pentacosa[16,18,24]trien]-15′-one 13′,13′-dioxide] | 0.165 |  |  |  | IC50 [2, 7]: 833 nM
Cc1nc([C@]2(O)/C=C/C[C@H](C)[C@@H](C)S(=O)(=O)NC(=O)c3ccc4c(c3)N(C[C@@H]3CC[C@H]32)C[C@@]2(CCCc3cc(Cl)ccc32)CO4)cs1 [Example 100516, (1S,3′R,6′R,7′S,8′E,11′S,12′R)-6-chloro-7′-hydroxy-11′,12′-dimethyl-7′-(2-methyl-1,3-thiazol-4-yl)-3,4-dihydro-2H,15′H-spiro[naphthalene-1,22′-[20]oxa[13]thia[1,14]diazatetracyclo [14.7.2.0~3,6~.0~19,24~]pentacosa[8,16,18,24]tetraen]-15′-one 13′,13′-dioxide] | 3.36 | 1900 |  |  | 
(1S,3′R,6′R,7′R,8′E, 11′S,12′R)-6-chloro-12′-(2-hydroxyethyl)-7′-methoxy-11′-methyl-7′-((9aR)-octahydro-2H-pyrido[1,2-a]pyrazin-2-ylmethyl)-3,4-dihydro-2H, 15′H-spiro[naphthalene-1,22′-[20]oxa[13]thia[1,14]diazatetracyclo[14.7.2.0-3,6˜.0˜19,24˜]pentacosa[8,16,18,24]tetraen]-15′-one 13′,13′-dioxide [Example 358] |  |  | 0.066 |  | IC50 [2, 8]: 144 nM
CO[C@]1(c2nccn2C)/C=C/C[C@H](C)[C@@H](C)S(=O)(=O)NC(=O)c2ccc3c(c2)N(C[C@@H]2CC[C@H]21)C[C@@]1(CCCc2cc(Cl)ccc21)CO3 (single isomer, unassigned) [Example 100553] | 1.04 | 2790 |  |  | 
CO[C@@]1(CN2CC(C)(N(C)C)C2)/C=C/[C@H](C)[C@H](C)CS(=O)(=O)NC(=O)c2ccc3c(c2)N(C[C@@H]2CC[C@H]21)C[C@@]1(CCCc2cc(Cl)ccc21)CO3 [Example 162, (1S,3′R,6′R,7′S,8′E,10′S,11′S)-6-chloro-7′-((3-(dimethylamino)-3-methyl-1-azetidinyl)methyl)-7′-methoxy-10′,11′-dimethyl-3,4-dihydro-2H,15′H-spiro[naphthalene-1,22′-[20]oxa[13]thia[1,14]diazatetracyclo [14.7.2.0~3,6~.0~19,24~]pentacosa[8,16,18,24]tetraen]-15′-one 13′,13′-dioxide] |  |  | 0.072 | 55 | 
CO[C@@]1(Cc2nccs2)/C=C/C[C@H](C)[C@@H](C)S(=O)(=O)NC(=O)c2ccc3c(c2)N(C[C@@H]2CC[C@H]21)C[C@@]1(CCCc2cc(Cl)ccc21)CO3 [Example 100525, (1S,3′R,6′R,7′S,8′E,11′S,12′R)-6-chloro-7′-methoxy-11′,12′-dimethyl-7′-(1,3-thiazol-2-ylmethyl)-3,4-dihydro-2H,15′H-spiro[naphthalene-1,22′-[20]oxa[13]thia[1,14]diazatetracyclo [14.7.2.0~3,6~.0~19,24~]pentacosa[8,16,18,24]tetraen]-15′-one 13′,13′-dioxide] | 3.31 | 1430 |  |  | 
C=CC(=O)N1CCN2CCN(C[C@]3(OC)/C=C/C[C@H](C)[C@@H](C)S(=O)(=O)NC(=O)c4ccc5c(c4)N(C[C@@H]4CC[C@H]43)C[C@@]3(CCCc4cc(Cl)ccc43)CO5)C[C@H]2C1 [Example 234] |  |  | 0.163 |  | IC50 [2, 8]: 71 nM
CO[C@]1(CCN2CC(C)(N(C)C)C2)/C=C/C[C@H](C)[C@@H](C)S(=O)(=O)NC(=O)c2ccc3c(c2)N(C[C@@H]2CC[C@H]21)C[C@@]1(CCCc2cc(Cl)ccc21)CO3 [Example 100453, (1S,3′R,6′R,7′R,8′E,11′S,12′R)-6-chloro-7′-(2-(3-(dimethylamino)-3-methyl-1-azetidinyl)ethyl)-7′-methoxy-11′,12′-dimethyl-3,4-dihydro-2H,15′H-spiro[naphthalene-1,22′-[20]oxa[13]thia[1,14]diazatetracyclo [14.7.2.0~3,6~.0~19,24~]pentacosa[8,16,18,24]tetraen]-15′-one 13′,13′-dioxide] | 0.927 | 2930 |  |  | 
CO[C@@]1(CN2CCc3ncsc3C2)/C=C/C[C@H](C)[C@@H](C)S(=O)(=O)NC(=O)c2ccc3c(c2)N(C[C@@H]2CC[C@H]21)C[C@@]1(CCCc2cc(Cl)ccc21)CO3 [Example 209] |  |  | 0.552 | 437 | 
C[C@@H]1[C@@H](C)CCC[C@@](O)(Cc2nccs2)[C@@H]2CC[C@H]2CN2C[C@@]3(CCCc4cc(Cl)ccc43)COc3ccc(cc32)C(=O)NS1(=O)=O (single isomer, unassigned) [Example 100251] | 3.29 |  |  |  | IC50 [2, 7]: 3730 nM
CO[C@@]1(CN2CCC3(CCOC3)CC2)/C=C/C[C@H](C)[C@@H](C)S(=O)(=O)NC(=O)c2ccc3c(c2)N(C[C@@H]2CC[C@H]21)C[C@@]1(CCCc2cc(Cl)ccc21)CO3 [Example 265, (1S,3′R,6′R,7′S,8′E,11′S,12′R)-6-chloro-7′-methoxy-11′,12′-dimethyl-7′-(2-oxa-8-azaspiro[4.5]dec-8-ylmethyl)-3,4-dihydro-2H,15′H-spiro[naphthalene-1,22′-[20]oxa[13]thia[1,14]diazatetracyclo [14.7.2.0~3,6~.0~19,24~]pentacosa[8,16,18,24]tetraen]-15′-one 13′,13′-dioxide] |  |  | 0.423 | 578 | 
CCO[C@@]1(CN2CCN3CCOC[C@@H]3C2)/C=C/C[C@H](C)[C@@H](C)S(=O)(=O)NC(=O)c2ccc3c(c2)N(C[C@@H]2CC[C@H]21)C[C@@]1(CCCc2cc(Cl)ccc21)CO3 [Example 101, (1S,3′R,6′R,7′S,8′E,11′S,12′R)-6-chloro-7′-ethoxy-7′-((9aS)-hexahydropyrazino[2,1-c][1,4]oxazin-8(1H)-ylmethyl)-11′,12′-dimethyl-3,4-dihydro-2H,15′H-spiro[naphthalene-1,22′-[20]oxa[13]thia[1,14]diazatetracyclo [14.7.2.0~3,6~.0~19,24~]pentacosa[8,16,18,24]tetraen]-15′-one 13′,13′-dioxide] |  |  | 0.196 | 263 | 
C[C@@H]1[C@@H](C)C/C=C/[C@@](O)(COCCN2CCOCC2)[C@@H]2CC[C@H]2CN2C[C@@]3(CCCc4cc(Cl)ccc43)COc3ccc(cc32)C(=O)NS1(=O)=O [Example 100355, (1S,3′R,6′R,7′S,8′E,11′S,12′R)-6-chloro-7′-hydroxy-11′,12′-dimethyl-7′-((2-(4-morpholinyl)ethoxy)methyl)-3,4-dihydro-2H,15′H-spiro[naphthalene-1,22′-[20]oxa[13]thia[1,14]diazatetracyclo [14.7.2.0~3,6~.0~19,24~]pentacosa[8,16,18,24]tetraen]-15′-one 13′,13′-dioxide] | 0.535 | 776 |  |  | 

From patent US10821115B2, “Compounds that inhibit Mcl-1 protein” (priority 2017, dated 2020)
